Reference: patent publication US5512549A, “Glucagon-like insulinotropic peptide analogs, compositions, and methods of use” (Eli Lilly and Company, priority 1994, dated 1996)
Values belong to the substance of their own block, whether it stands above or below them.

Experiments:
[1] = test system: Sprague Dawley or Zucker Diabetic Fatty rats; test: Rat IV Glucose (1 g/kg) Tolerance Test; format: in vivo; settings: for Insulin Change AUC: 0-15 min
Experimental: a) Glucose Tolerance Tests
Experiments were conducted in overnight-fasted, conscious, male Sprague Dawley (Charles River) or Zucker Diabetic Fatty (Genetic Models, Inc.) rats weighing approximately 250 (Sprague Dawley rats) or 300 (Zucker Diabetic Fatty rats) grams. Four to five days prior the study, rats were anesthetized with isoflurane, and a polyethylene (PE50) catheter was inserted into the right jugular vein. The catheter was secured with a wound clip, filled with saline containing heparin (2% sodium heparin), and closed with a small stainless steel plug.
After a sixteen-hour fast, twelve chronically cannulated rats were separated into four groups of three rats per group. 0.4 ml of blood was taken from the tail vein, collected into a microtainer tube containing lithium heparin, and immediately placed on ice (zero minute sample). A glucose bolus (1.0 g/kg; 50% glucose (w/v) in water) was administered via the indwelling jugular cannula, and the cannula was rinsed with 200 μl of saline. Twenty seconds later a bolus of test substance 100 μl/100 g body weight of either vehicle (saline containing 0.3% (w/v) bovine serum albumin) or vehicle containing analog! was administered through the jugular cannula, and the cannula was rinsed as before. Rats were bled from the tail again at 2, 5, 10, 20 and 30 minutes after the administration of the glucose bolus, and the samples were treated as described above. At the end of the experiment, blood samples were centrifuged, and the plasma was collected.
Plasma glucose concentrations were determined the day of the experiment using a coupled hexokinase procedure in a clinical chemistry analyzer. Plasma for insulin determinations were diluted with zero calibrator and frozen at -20° C. until time for analysis. Insulin concentrations were determined using a commercial radioimmunoassay kit with rat insulin as the standard.
Insulin change (the change in insulin from the baseline value) was calculated as the difference between the insulin concentration at time t and the insulin concentration at zero time. The area under the insulin change curve was calculated using the trapezoidal rule. Plasma glucose change (the increase in plasma glucose above the baseline value) was calculated as the difference between the plasma glucose concentration at time t and the plasma glucose concentration at zero time. The area under the plasma glucose change curve was calculated using the trapezoidal rule. Values are listed as the mean ± the standard error of the mean (SEM).

beagles [2] = test: Dog I.V. Hyperglycemic (150 mg/dl) Clamp Test; format: in vivo; settings: I.V. 1.0 μg/kg
Experimental: (§1) a) Hyperglycemic Clamp Studies
(§2) Experiments were conducted in overnight-fasted, conscious, adult (1-2 years of age) male and female beagles weighing 8-15 kg. At least ten days prior to the study, animals were anesthetized with isoflurane, and a cut-down was made in the left or right inguinal region. Silastic catheters were inserted into the femoral artery and the proximal caudal femoral vein and secured with 4-0 silk suture. The free ends of the catheters were passed subcutaneously to the back using a trocar needle. The catheters were then filled with a glycerol/heparin solution (3:1, v/v; final heparin concentration of 250 KIU/ml), and the free ends were knotted and placed in a subcutaneous pocket to allow complete closure of the skin. Keflex® was administered both pre-operatively (20 mg/kg, IV and 20 mg/kg, I.M.) and post-operatively (250 mg, p.o. once daily for seven days) to prevent infections. Torbugesic (1.5 mg/kg, I.M.) was administered post-operativelyto control pain.
(§3) Blood was drawn just prior to the study day to determine the health of the animal. Only animals with hematocrits above 38% and leukocyte counts below 16,000/mm^3 were used.
(§4) The afternoon before the experiment, the free ends of the catheters were exteriorized from the subcutaneous pocket through a small incision made under local anesthesia (2% lidocaine), and the dog was fitted with a tether system jacket and collar assembly.
(§5) The morning of the experiment, the contents of the catheters were aspirated, the catheters were flushed with saline, and extension lines (protected by a stainless steel tether) were attached to the catheters. On mornings of IV injection experiments, an over-the-needle, teflon catheter was inserted percutaneously into a cephalic vein in preparation for the administration of an IV bolus of test substance. The dog was placed in a metabolic cage, and the catheter extension lines and tether were attached to a swivel system to allow the dog to move freely about the cage. At this time (-60 minutes), an exogenous infusion of glucose (50% w/v in water) was begun through the chronic venous catheter. Glucose was infused in a descending stepwise fashion over the first six minutes of the study to rapidly raise the plasma glucose concentration to 150 mg/dl. Plasma glucose concentrations were determined every 2.5 to 7.5 minutes throughout the remainder of the study, and the glucose infusion rate was adjusted appropriately to maintain the plasma glucose concentration at 150 mg/dl.
(§6) Sixty minutes after the start of the glucose infusion (time 0), test substance was administered either intravenously (1.0, 2.9, 5.0 or 10.0 μg/kg; dose dissolved in 2 ml of saline containing 0.3% dog albumin, w/v) through the previously inserted teflon catheter or subcutaneously (10 μg/kg; 150 μM in phosphate buffered saline) in the dorsal aspect of the neck.
(§7) Arterial blood samples (3.5 ml) were taken at -30, -15, 0, 2.5, 5, 7.5, 10, 12.5, 15, 20, 30, 45, 60, 75, 90, 105 and 120 minutes during the IV studies and at -30, -15, 0, 3, 6, 9, 12, 15, 20, 30, 45, 60, 75, 90, 105 and 120 minutes during the SC studies. Samples were collected in vacuum blood collection tubes containing disodium EDTA and immediately placed on ice. To prevent proteolytic cleavage of GLP-1(7-37) in the plasma samples, 1.5 ml of the EDTA containing blood were transferred to a polypropylene tube containing 40 μl of aprotinin (10,000 KIU/ml) and mixed well. The samples were centrifuged, and the resulting plasma was transferred to polypropylene test tubes and stored on ice for the duration of the study.
(§8) At the conclusion of the experiment, the animal was anesthetized (isoflurane); the catheters were flushed with fresh saline and filled with the glycerol/heparin mixture; the free ends of the catheters were knotted and placed subcutaneously as described earlier; and antibiotic was administered (300 mg Keflex®, I.M.). […]

rat GLP-1 receptor = biological target: T1, rat GLP-1 receptor (Rattus norvegicus, UniProt P32301); test: cAMP Assay (in vitro receptor binding assay) on membrane preparation; format: biochemical; settings: cAMP production, CHO membranes expressing rat GLP-1 receptor; mean ± spread
T1 construct: expressed in transfected cells; host or cells: CHO DXB-11 (Chinese hamster ovary) cells, used as a membrane preparation
T1 sequence (P32301 22-463): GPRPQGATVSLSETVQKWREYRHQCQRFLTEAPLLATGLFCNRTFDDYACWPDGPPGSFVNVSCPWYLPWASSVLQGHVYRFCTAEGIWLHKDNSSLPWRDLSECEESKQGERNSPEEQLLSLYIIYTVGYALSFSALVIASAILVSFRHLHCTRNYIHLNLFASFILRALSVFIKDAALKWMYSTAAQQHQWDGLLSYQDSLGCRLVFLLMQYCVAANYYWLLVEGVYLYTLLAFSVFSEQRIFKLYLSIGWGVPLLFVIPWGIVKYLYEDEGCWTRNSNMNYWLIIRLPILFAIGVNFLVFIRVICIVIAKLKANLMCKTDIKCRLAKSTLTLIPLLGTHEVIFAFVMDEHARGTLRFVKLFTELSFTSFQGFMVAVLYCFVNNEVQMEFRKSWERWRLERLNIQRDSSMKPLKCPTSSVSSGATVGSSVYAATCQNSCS
Experimental: A sample of the membrane preparation was preincubated with a test compound or a control compound in buffer (25 mM HEPES, 0.2% (w/v) BSA, pH 7.6) at 32° C. for 10 minutes. Reaction buffer (final concentration: 25 mM HEPES, 0.2% (w/v) BSA, 2.6 mM Mg, 0.8 mMATP, 0.1 mM GTP, 5 mM creatine phosphate, creatine kinase 50 U/ml, 0.2 mM IBMX, pH 7.6) was added and incubated for an additional 30 minutes. Incubations were stopped by adding 10 mM EDTA.
Production of cAMP was assayed using a fluorescent tracer-immuno assay method. In brief, after the incubation was stopped, fluorescent tracer (cAMP-b phycoerythrin conjugate) was added followed by the addition of affinity purified anti-cAMP rabbit antiserum. After incubation at room temperature for 45 minutes, anti-rabbit IgG coated assay beads were added and incubated for an additional 15 minutes. Plates were then evacuated and read on a Pandex PFCIA reader.
Fluorescent intensity values were correlated to rate of cAMP production (pmol/min/mg).

beagles [3] = test: Dog S.C. Hyperglycemic (150 mg/dl) Clamp Test; format: in vivo; settings: S.C. 10 μg/kg
Experimental: as §1, §2, §3, §4, §5, §6, §7, §8

[4] = 120 minute test period, mean ± SEM

Substance: GLP-1(7-36)NH2
Insulin Change at 10 min ([1]; IV dose 0.2 mg/kg): 1.8 ng/mL | Max Insulin Change ([1]; IV dose 0.2 mg/kg): 4.0 ng/mL | Insulin Change AUC ([1]; IV dose 0.2 mg/kg): 34 ± 4 ng·min/mL | Insulin Change at 10 min ([1]; IV dose 0.3 mg/kg): 2.2 ng/mL | Max Insulin Change ([1]; IV dose 0.3 mg/kg): 6.1 ng/mL | Insulin Change AUC ([1]; IV dose 0.3 mg/kg): 50 ± 13 ng·min/mL | Insulin Change at 10 min ([1]; IV dose 0.4 mg/kg): 3.8 ng/mL | Max Insulin Change ([1]; IV dose 0.4 mg/kg): 7.7 ng/mL | Insulin Change AUC ([1]; IV dose 0.4 mg/kg): 73 ± 14 ng·min/mL | Insulin Change at 10 min ([1]; IV dose 0.6 mg/kg): 3.4 ng/mL | Max Insulin Change ([1]; IV dose 0.6 mg/kg): 7.7 ng/mL | Insulin Change AUC ([1]; IV dose 0.6 mg/kg): 67 ± 11 ng·min/mL | Insulin Change at 10 min ([1]; IV dose 0.8 mg/kg): 4.1 ng/mL | Max Insulin Change ([1]; IV dose 0.8 mg/kg): 11.3 ng/mL | Insulin Change AUC ([1]; IV dose 0.8 mg/kg): 97 ± 25 ng·min/mL | Insulin Change at 10 min ([1]; IV dose 1.0 mg/kg): 3.9 ng/mL | Max Insulin Change ([1]; IV dose 1.0 mg/kg): 11.4 ng/mL | Insulin Change AUC ([1]; IV dose 1.0 mg/kg): 89 ± 16 ng·min/mL | Insulin Change at 10 min ([1]; IV dose 2.0 mg/kg): 4.9 ng/mL | Max Insulin Change ([1]; IV dose 2.0 mg/kg): 11.7 ng/mL | GIR Change AUC (beagles [2]; 0-60 min, mean ± SEM): 414 ± 73 mg/kg | Insulin Change AUC (beagles [2]; 0-60 min, mean ± SEM): 32 ± 8 ng·min/mL | Max Insulin Change (beagles [2]; [4]): 3.4 ± 0.6 ng/mL | Duration of Insulin Effect (beagles [2]; time average insulin change consistently ≥0.5 ng/ml): 2.5 min

% Relative Potency (rat GLP-1 receptor): 108.2 ± 22.4%
Substance: N- Imidazole-α,α-dimethyl-acetyl!GLP-1 (8-37)OH [α,α-imidazoacetyl-GLP-1(8-37)OH]

Substance: Arg^26 -Lys^34 -N^ε -octanoyl-GLP-1(8-37)OH [Arg^26-Lys^34-N^ε-octanoyl-GLP-1(8-37)OH]
GIR Change AUC (beagles [3]; 0-120 min, mean ± SEM): 659 ± 182 mg/kg | Insulin Change AUC (beagles [3]; 0-120 min, mean ± SEM): 11 ± 26 ng·min/mL | Max Insulin Change (beagles [3]; [4]): 0.6 ± 0.4 ng/mL | Duration of Insulin Effect (beagles [3]; time average insulin change consistently >0.5 ng/ml): not active
